Data taken from paper PMC9822358, “New Structures, Spectrometric Quantification, and Inhibitory Properties of Cardenolides from Asclepias curassavica Seeds” (Molecules, 2022).

Legend:
[1] = target: porcine Na^+/K^+-ATPase (purified NKA from S. domesticus cerebral cortex); assay: Na+/K+ ATPase (NKA) inhibitory activity assay (inorganic phosphate released from ATP, absorbance at 700 nm); format: biochemical; conditions: unadapted NKA from Sus domesticus; read-out: IC50 against porcine NKA
Description: We tested the inhibitory capacity of the new compounds 1 and 2 and the known cardenolides 5–10 against porcine NKA. We used an in vitro assay to determine the IC50 of each compound and used ouabain as a reference.
We quantified the NKA inhibitory activity of the isolated cardenolides using purified NKA from S. domesticus cerebral cortex (Sigma-Aldrich-A7510-5UN, Steinheim, Germany), following protocols standardized by Petschenka et al.. Briefly, porcine NKA was diluted in di-water to a final assay concentration of 0.01 U/mL. The ATPase was exposed to exponentially decreasing concentrations from 10^−3 to 10^−8 M of ouabain (Sigma-Aldrich, O3125-1G, Steinheim, Germany) or the cardenolides 1–2 and 5–10. […] The NKA activity after cardenolide exposure was determined by quantification of inorganic phosphate released from enzymatically hydrolysed ATP. The […] levels were measured by photometric determination, reading the absorbance at 700 nm with a microplate reader (BMG Clariostar, BMG Labtech, Germany). The absorbance of each reaction was corrected with the respective background, and the inhibition curves were plotted in R studio [61] with log10-transformed cardenolide concentration versus percent of uninhibited control, with top and bottom asymptotes set to 1 and 0, respectively. […] IC50 values for each cardenolide and ouabain were also calculated from the inhibition curves using R studio. […]

porcine NKA = system: porcine NKA; set-up: method as in PMID 33850021; conditions: cited from earlier work

Structure (SMILES) | IC50 [1] [µM] | log10 IC50 against porcine NKA (porcine NKA; log10 of IC50 in M) | IC50 (porcine NKA; read-out: IC50 against porcine NKA) [µM]
C[C@H]1O[C@@H](O[C@H]2CC[C@@]3(C=O)[C@@H](CC[C@@H]4[C@@H]3CC[C@]3(C)[C@@H](C5=CC(=O)OC5)CC[C@]43O)C2)[C@H](O)[C@H](O)[C@@H]1O [Compound 9, gofruside] | 0.0965 | – | –
CC1CC(O)C2(O)OC3CC4(C=O)C(CCC5C4CCC4(C)C(C6=CC(=O)OC6)C(O)CC54O)CC3OC2O1 (stereo not drawn) [Compound 10, 16α-hydroxycalotropin] | 3.67 | – | –
C[C@@H]1C[C@H](O)[C@]2(O)O[C@@H]3C[C@@]4(C=O)[C@@H](CC[C@@H]5[C@@H]4CC[C@]4(C)[C@@H](C6=CC(=O)OC6)CC[C@]54O)C[C@H]3O[C@@H]2O1 [calotropin] | – | −6.56 | 0.27
